The subject of experiment [1] is HCT 116 cells. Nature of the experiment: CellTiter-Glo assay in HCT 116 cells. The format is cell-based. As to conditions: 120 h; HCT 116 human colon carcinoma cells, 5 days incubation, cell viability (ATP luminescence). An excerpt: CellTiter-Glo™ Assay in HCT 116 Cells:
The CellTiter-Glo™ Luminescent Cell Viability Assay (Promega) is a homogeneous method of determining the number of viable cells in culture based on quantitation of the ATP present, which signals the presence of metabolically active cells.
HCT 116 cells (human colon carcinoma, ATCC-No. CCl-247) were cultivated in RPMI 1640 medium with GlutaMAX™ I (Invitrogen, Cat-No. 61870-010), 5% Fetal Calf Serum (FCS, Sigma Cat-No. F4135 (FBS)); 100 Units/ml penicillin/100 μg/ml streptomycin (=Pen/Strep from Invitrogen Cat. No. 15140). For the assay the cells were seeded in 384 well plates, 1000 cells per well, in the same medium. The next day the test compounds were added in various concentrations ranging from 30 μM to 0.0015 μM (10 concentrations, 1:3 diluted). After 5 days the CellTiter-Glo™ assay was done according to the instructions of the manufacturer (CellTiter-Glo™ Luminescent Cell Viability Assay, from Promega). In brief: the cell-plate was equilibrated to room temperature for approximately 30 minutes and than the CellTiter-Glo™ reagent was added. The contents were carefully mixed for 15 minutes to induce cell lysis. After 45 minutes the luminescent signal was measured in Victor 2, (scanning multiwell spectrophotometer, Wallac).
• Medium: RPMI 1640 with GlutaMAX™ I (Invitrogen, Cat-Nr. 61870), 5% FCS (Sigma Cat.-No. F4135), Pen/Strep (Invitrogen, Cat No. 15140). • HCT116 (ATCC-No. CCl-247): 1000 cells in 60 μl per well of 384 well plate (Greiner 781098, μClear-plate white) • After seeding incubate plates 24 h at 37° C., 5% CO2 2nd. Day: Induction (Treatment with Compounds, 10 Concentrations):
In order to achieve a final concentration of 30 μM as highest concentration 3.5 μl of 10 mM compound stock solution were added directly to 163 μl media. Then step e) of the dilution procedure described below, was followed.
In general terms: Cellular ATP, detected with luciferase, serves as a proxy for viable cell number.

Experiment [2] concerns VEGF-induced HUVEC cells. Put plainly: CellTiter-Glo assay in VEGF-induced HUVEC cells. The experiment is classed as cell-based. As to conditions: Homo sapiens; Table 2; VEGF-induced (20 ng/ml) HUVEC cells, 72 hours, cell viability (ATP luminescence); read-out: IC50 HCT 116. Here is the method: CellTiter-Glo™ Assay in VEGF-Induced HUVEC Cells:
HUVEC-c (Human Umbilical Vein Endothelial Cells, from Promocell Cat-No. C-12200) cells were trypsinized, spinned down and plated in 384-well plates at 1500 cells per well in 60 μl endothelial basal medium (EBM-2 from Promocell, Cat-No. C-22211) with 0.5% Fetal Calf Serum (FCS, Sigma Cat-No. F4135 (FBS)). Cells were incubated overnight at 37° C., and the next day, test compounds (stock solution 140 μmol/l in medium with 4.2% dimethylsulfoxide (DMSO)) were added in 5 μl medium over a final concentration range of 10 μmol/l to 0.5 nmol/l and 0.3% DMSO. Compounds were tested in triplicates. After 2 hrs 5 μl VEGF (VEGF 165, R&D Systems, Cat-No. 293-VE-010, stock solution 280 ng/ml in medium) was added to a final concentration of 20 ng/ml. Cells were incubated for 72 hours at 37° C. in medium. Cell number was quantitated using CellTiter-Glo™ Luminescent Cell Viability Assay (from Promega) according to the instructions of the supplier. This assay measures the number of viable cells per well by measurement of luminescent signal based on amount of cellular ATP. IC50 are determined using a non-linear curve fit (XLfit software (ID Business Solution Ltd., Guilford, Surrey, UK)) (see also CellTiter-Glo™ assay in HCT 116 cells above).

pIC50: −log10 of the molar value.

In experiment [1], `O=C(Nc1ccc(Oc2ccnc(NCCO)n2)cc1)Nc1ccc(Cl)c(C(F)(F)F)c1` [Example 11, 1-(4-Chloro-3-trifluoromethylphenyl)-3-{4-[2-(2-hydroxy-ethylamino)-pyrimidin-4-yloxy]-phenyl}-urea] gave a pIC50 of 5.00 to 6.52.
In the case of `O=C(Nc1ccc(Oc2ccnc(NCCCO)n2)cc1)Nc1cccc(C(F)(F)F)c1` [Example 7, 1-{4-[2-(3-Hydroxy-propylamino)-pyrimidin-4-yloxy]-phenyl}-3-(3-trifluoromethyl-phenyl)-urea], the pIC50 in experiment [1] was 5.00 to 6.52; in experiment [2], 6.12 to 8.30.
In the case of `O=C(Nc1ccc(Oc2ccnc(NCCCO)n2)cc1)Nc1cccc(OC(F)(F)F)c1` [Example 2, 1-{4-[2-(3-Hydroxy-propylamino)-pyrimidin-4-yloxy]-phenyl}-3-(3-trifluoromethoxy-phenyl)-urea], the pIC50 in experiment [1] is 6.17; in experiment [2] it was 6.12 to 8.30.
For the compound `O=C(Nc1ccc(Oc2cc(NCCCO)ncn2)cc1)Nc1ccc(Cl)c(C(F)(F)F)c1` [Example 23, 1-(4-Chloro-3-trifluoromethyl-phenyl)-3-{4-[6-(3-hydroxy-propylamino)-pyrimidin-4-yloxy]-phenyl}-urea], in experiment [2], the pIC50 is 6.12 to 8.30.
Consider `O=C(Nc1ccc(Cl)c(C(F)(F)F)c1)Nc1ccc(Oc2ccnc(NCCCO)n2)cc1F` [Example 18, 1-(4-Chloro-3-trifluoromethyl-phenyl)-3-{2-fluoro-4-[2-(3-hydroxy-propylamino)-pyrimidin-4-yloxy]-phenyl}-urea], for which the figures for the pIC50 in experiment [1] and in experiment [2] were 5.00 to 6.52 and 6.12 to 8.30, respectively.
With `O=C(Nc1ccc(Oc2cc(NCCO)ncn2)cc1)Nc1ccc(Cl)c(C(F)(F)F)c1` [Example 22, 1-(4-Chloro-3-trifluoromethyl-phenyl)-3-{4-[6-(2-hydroxy-ethylamino)-pyrimidin-4-yloxy]-phenyl}-urea], the pIC50 is 5.00 to 6.52 in experiment [1] and 6.12 to 8.30 in experiment [2].
`O=C(Nc1ccc(Oc2ccnc(NCCCO)n2)c(Cl)c1)Nc1ccc(Cl)c(C(F)(F)F)c1` [Example 15, 1-(4-Chloro-3-trifluoromethyl-phenyl)-3-{3-chloro-4-[2-(3-hydroxy-propylamino)-pyrimidin-4-yloxy]-phenyl}-urea]: the pIC50 in experiment [2] was 6.12 to 8.30.
On to `CC1(C)CNc2cc(NC(=O)Nc3ccc(Oc4ccnc(NCCCO)n4)cc3)ccc21` [Example 29, 1-(3,3-Dimethyl-2,3-dihydro-1H-indol-6-yl)-3-{4-[2-(3-hydroxy-propylamino)-pyrimidin-4-yloxy]-phenyl}-urea], for which the pIC50 was 5.00 to 6.52 in experiment [1] and 6.12 to 8.30 in experiment [2].
Regarding `O=C(Nc1ccc(Oc2ccnc(NCCCO)n2)cc1)Nc1cc(C(F)(F)F)ccc1Cl` [Example 19, 1-(2-Chloro-5-trifluoromethyl-phenyl)-3-{4-[2-(3-hydroxy-propylamino)-pyrimidin-4-yloxy]-phenyl}-urea], in experiment [2], the pIC50 was 6.12 to 8.30.
For `O=C(Nc1ccc(Oc2ccnc(NCCCO)n2)cc1)Nc1ccc(OC(F)(F)F)cc1` [Example 3, 1-{4-[2-(3-Hydroxy-propylamino)-pyrimidin-4-yloxy]-phenyl}-3-(4-trifluoromethoxy-phenyl)-urea], the results for the negative logarithm of the IC50 (pIC50) in experiment [1] and in experiment [2] were 5.00 to 6.52 and 6.12 to 8.30, respectively.
With `O=C(Nc1ccc(Oc2cc(NCCO)ncn2)cc1)Nc1cccc(C(F)(F)F)c1` [Example 20, 1-{4-[6-(2-Hydroxy-ethylamino)-pyrimidin-4-yloxy]-phenyl}-3-(3-trifluoromethyl-phenyl)-urea], the pIC50 in experiment [1] was 5.00 to 6.52; in experiment [2], 6.12 to 8.30.
Turning to `O=C(Nc1ccc(Oc2ccnc(NCCCCO)n2)cc1)Nc1ccc(Cl)c(C(F)(F)F)c1` [Example 10, 1-(4-Chloro-3-trifluoromethylphenyl)-3-{4-[2-(4-hydroxy-butylamino)-pyrimidin-4-yloxy]-phenyl}-urea], the figures for the negative logarithm of the IC50 (pIC50) in experiment [1] and in experiment [2] were 5.00 to 6.52 and 6.12 to 8.30, respectively.
In the case of `CC(C)(C#N)c1cccc(NC(=O)Nc2ccc(Oc3ccnc(NCCCO)n3)cc2)c1` [Example 25, 1-[3-(Cyano-dimethyl-methyl)-phenyl]-3-{4-[2-(3-hydroxy-propylamino)-pyrimidin-4-yloxy]-phenyl}-urea], the pIC50 in experiment [1] was 5.00 to 6.52; in experiment [2], 6.12 to 8.30.
As to `O=C(Nc1ccc(Oc2ccnc(NCCCO)n2)cc1)Nc1ccc2c(c1)OC(F)(F)O2` [Example 28, 1-(2,2-Difluoro-benzo[1,3]dioxol-5-yl)-3-{4-[2-(3-hydroxy-propylamino)-pyrimidin-4-yloxy]-phenyl}-urea], the pIC50 in experiment [1] was 5.00 to 6.52; in experiment [2], 7.09.
In the case of `CC(O)CCNc1nccc(Oc2ccc(NC(=O)Nc3ccc(Cl)c(C(F)(F)F)c3)cc2)n1` (stereo not drawn) [Example 12, 1-(4-Chloro-3-trifluoromethylphenyl)-3-{4-[2-(3-hydroxy-butylamino)-pyrimidin-4-yloxy]-phenyl}-urea], the pIC50 in experiment [1] was 5.00 to 6.52; in experiment [2], 6.12 to 8.30.
The corresponding values for `CC(C)(C)c1cccc(NC(=O)Nc2ccc(Oc3ccnc(NCCCO)n3)cc2)c1` [Example 4, 1-(3-tert-Butyl-phenyl)-3-{4-[2-(3-Hydroxy-propylamino)-pyrimidin-4-yloxy]-phenyl}-urea] are 5.00 to 6.52 and 6.12 to 8.30.
The corresponding values for `O=C(Nc1ccccc1)Nc1ccc(Oc2ccnc(NCCCO)n2)cc1` [Example 13, 1-{4-[2-(3-Hydroxy-propylamino)-pyrimidin-4-yloxy]-phenyl}-3-phenyl-urea] are 5.00 to 6.52 and 6.12 to 8.30.
With `CC(C)(C)c1ccc(NC(=O)Nc2ccc(Oc3ccnc(NCCCO)n3)cc2)cc1` [Example 5, 1-(4-tert-Butyl-phenyl)-3-{4-[2-(3-Hydroxy-propylamino)-pyrimidin-4-yloxy]-phenyl}-urea], in experiment [2], the pIC50 is 6.12 to 8.30.
With `CC(C#N)c1cccc(NC(=O)Nc2ccc(Oc3ccnc(NCCCO)n3)cc2)c1` (stereo not drawn) [Example 26, 1-[3-(Cyano-methyl-methyl)-phenyl]-3-{4-[2-(3-hydroxy-propylamino)-pyrimidin-4-yloxy]-phenyl}-urea], the pIC50 in experiment [1] was 5.00 to 6.52; in experiment [2] it was 6.12 to 8.30.
As for `O=C(Nc1ccc(Oc2ccnc(NCCCO)n2)c(F)c1)Nc1ccc(Cl)c(C(F)(F)F)c1` [Example 17, 1-(4-Chloro-3-trifluoromethyl-phenyl)-3-{3-fluoro-4-[2-(3-hydroxy-propylamino)-pyrimidin-4-yloxy]-phenyl}-urea], the pIC50 was 5.00 to 6.52 in experiment [1] and 6.12 to 8.30 in experiment [2].
For the compound `C[Si](C)(C)c1ccc(NC(=O)Nc2ccc(Oc3ccnc(NCCCO)n3)cc2)cc1` [Example 14, 1-{4-[2-(3-Hydroxy-propylamino)-pyrimidin-4-yloxy]-phenyl}-3-(4-trimethylsilanyl-phenyl)-urea], the negative logarithm of the IC50 (pIC50) in experiment [1] was 5.82; in experiment [2] it was 6.12 to 8.30.
For `CC(C)(C#N)c1ccc(NC(=O)Nc2ccc(Oc3ccnc(NCCCO)n3)cc2)cc1` [Example 24, 1-[4-(Cyano-dimethyl-methyl)-phenyl]-3-{4-[2-(3-Hydroxy-propylamino)-pyrimidin-4-yloxy]-phenyl}-urea], the pIC50 in experiment [1] was 5.00 to 6.52.
As to `COc1ccc(C(F)(F)F)cc1NC(=O)Nc1ccc(Oc2ccnc(NCCCO)n2)cc1` [Example 1, 1-{4-[2-(3-Hydroxy-propylamino)-pyrimidin-4-yloxy]-phenyl}-3-(2-methoxy-5-trifluoromethyl-phenyl)-urea], in experiment [2], the pIC50 is 7.17.

Usually pIC50 stands for the negative decadic logarithm of the IC50, by convention in mol/L.
